The source of these data is PMC8162404, “Proteomimetic surface fragments distinguish targets by function” (Chemical Science, 2020).

In one assay the target is T1, CaM (Bos taurus, UniProt P62157).
T1 construct: made in house; host or cells: E. coli BL21 (DE3)
Description: Pull-down assay with immobilized protein and LSM libraries. In kind it is binding, bovine. To be noted: 1:2 stoichiometry assumed, read-out: Surface mapping KD (apparent). The method, boiled down: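 His-tagged protein immobilized on Co-NTA resin, equilibrated 30 min at room temperature with LSM sublibraries (64 members, […]), equimolar protein to total probe. CaM buffer: 20 mM HEPES pH 7.4, 150 mM NaCl, 5 mM CaCl2. Bound fractions from HPLC-MS loss of unbound probe versus protein-free resin control; Kd derived.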

The target of assay [1] is T2, Gal-1 (Homo sapiens, UniProt P09382).
T2 construct: made in house; host or cells: E. coli BL21(DE3)
Described as above. In kind it is binding. The conditions noted are these: 1:1 binding assumed, read-out: Surface mapping KD (apparent). The method, boiled down: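 His-tagged protein immobilized on Co-NTA resin (64 µM) in 20 mM HEPES pH 7.4, 150 mM NaCl, equilibrated 30 min at room temperature with foldamer LSM sublibraries at equimolar total concentration. Unbound fractions quantified by HPLC-MS versus protein-free resin control; apparent KD assumes 1:1 binding.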

The target in a further assay is T3, S100A4 (Homo sapiens, UniProt P26447).
T3 construct: made in house; host or cells: Escherichia coli BL21(DE3)
The description is as above. To be noted: 1:1 binding assumed, read-out: Surface mapping KD (apparent). In kind it is binding. The method, boiled down:
(§1)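 Buffers were HEPES pH 7.4 with 150 mM NaCl, plus 1 mM TCEP and 1 mM CaCl2 (50 mM HEPES) for S100A4 and S100B, 1 mM TCEP for Gal-1, and no additive for RecQ-WH. Immobilized protein at 64 µM was equilibrated 30 min with the LSM sublibrary, and unbound probes were measured by LC-MS.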

Another assay has as its target T4, S100B (Homo sapiens, UniProt P04271).
T4 construct: made in house; host or cells: Escherichia coli BL21(DE3)
T4 sequence (P04271 1-92): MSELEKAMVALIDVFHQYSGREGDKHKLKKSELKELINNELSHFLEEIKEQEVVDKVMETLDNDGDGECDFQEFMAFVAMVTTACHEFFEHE
Described as above. In kind it is binding. To be noted: 1:1 binding assumed, read-out: Surface mapping KD (apparent). The procedure, abridged: as §1

Assay [2] deals with T2, Gal-1. Briefly: Competition pull-down with lactose. In kind it is binding. To be noted: H14 library; lactose 10 mM; read-out: Surface mapping KD (apparent), competition. The method, then: Interactions between the H14 helical LSMs and the targets were abundant, but safe recognition of the native PPI interfaces on the targets is a criterion of druggability. To gain insight into the ability of the LSMs to detect orthosteric spots, we carried out pull-down assays in the presence of the native ligands (Table 2) of the targets (Fig. 5). For highlighting the effect of the competitor on the binding fingerprints, KD ratios and the LSM replacement percentages were calculated and are represented as heat maps (see ESI, Fig. S7 ^†). […] This could be explained by the glycan selective native recognition domain of the protein. We note that the replacement pattern for a single probe can, in theory, be complex. […] Moreover, a single probe can bind to both orthosteric and non-orthosteric spots, which limits overall displacement levels. To avoid overlooking interesting orthosteric weak binders, direct replacement levels were assessed (see ESI, Fig. S7 ^†).
Pull-down assay and data analysis
Pull-down assay. LSM sublibraries were screened separately as previously described.(2) Experiments were performed in the following buffers: (i) 20 mM pH 7.4 HEPES, 150 mM NaCl, 5 mM CaCl2 for CaM; (ii) 50 mM pH 7.4 HEPES, 150 mM NaCl, 1 mM TCEP, 1 mM CaCl2 for S100 proteins; (iii) 20 mM pH 7.4 HEPES, 150 mM NaCl, 1 mM TCEP for Gal-1 and (iv) 20 mM pH 7.4 HEPES, 150 mM NaCl for RecQ-WH. Assays were performed in paper filter spin cups (Thermo Scientific) with sample volumes of 100 µl. Hexahistidine-tagged proteins were immobilized on previously washed Co-NTA resin (TALON, Takara Bio USA, Inc., Mountain View, CA) in 64 µM final concentration. LSM sublibrary was added, in which each of the 64 library members were used at a concentration of 1 µM. Samples were incubated at room temperature for 30 min with shaking at 100 rpm. Then, samples were centrifuged at 1000 rpm for 2 min and washed with 100 µl pull-down buffer to remove unbound compounds.
The control experiments were performed using the same compounds and the resin but without the immobilized protein. In case of competitive assays, competitor peptides were added to LSM sublibrary samples in 200 µM final concentration. In the case of Gal-1, lactose (competitor) was used in a concentration of 10 mM. Experiments were performed at least twice. Mean […]
LC-MS methods and parameters. HPLC/ESI-MS analysis was used to characterize the samples from the pull-down assay. LC-MS analysis was performed with a Thermo Scientific Dionex UltiMate 3000 HPLC system interfaced to an LTQ ion trap mass spectrometer (Thermo Electron Corp., San Jose, CA, USA). Samples were injected onto an Aeris Widepore XB-C18 (250 x 4.6 mm) analytical HPLC column using gradient elution 5-80 % solution B during 25 minutes. For pull-down samples, eluent composition was 0.1% acetic acid in distilled water (Solution A) and 0.1% acetic acid in acetonitrile (solution B). Mass spectra were acquired in full scan mode from 200 to 2000 m/z range. For overlapping peaks, selective reaction monitoring (SRM) was […]
MS data analysis. Thermo Xcalibur 2.2 software was used for peak identification and integration. The majority of the foldameric fragments could be resolved independently via HPLC-MS/MS measurements based on molecular weight, MS fragmentation pattern and retention time. Peaks of some foldamers with β3-hIle or β3-hLeu in position R2 could not be resolved, these were integrated and averaged. In the processing method, each sample component was associated to a chromatographic peak based on previously identified mass (m/z) and retention time (ref (2) and Table S7-10). Using ICIS peak detection algorithm, the general detection and integration criteria were: smoothing points: 5, baseline window: 80, area noise factor: 5, peak noise factor: 10. Using these processing setups, all raw data files were reprocessed together and analyzed. Errors in peak identification during the automatic processing were corrected manually.
Calculation of the discussed parameters […]

Molecules are shown by their SMILES. Like-named read-outs stand apart in the source and are kept apart here.

T3 sequence (P26447 whole entry): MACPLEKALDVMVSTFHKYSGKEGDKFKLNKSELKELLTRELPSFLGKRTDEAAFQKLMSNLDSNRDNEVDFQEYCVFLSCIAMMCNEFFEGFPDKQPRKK
T2 sequence (P09382 whole entry): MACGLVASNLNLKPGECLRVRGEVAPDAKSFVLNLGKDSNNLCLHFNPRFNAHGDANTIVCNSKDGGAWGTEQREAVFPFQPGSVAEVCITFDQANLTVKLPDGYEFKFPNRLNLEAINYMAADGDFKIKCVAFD

With `CC(C)[C@@H](CC(=O)N[C@H]1CCC[C@@H]1C(=O)N[C@H]1CCC[C@@H]1C(=O)N[C@H](CC(=O)N[C@H]1CCC[C@@H]1C(=O)N[C@H]1CCC[C@@H]1C(N)=O)Cc1c[nH]c2ccccc12)NC(=O)[C@H]1CCC[C@@H]1NC(=O)[C@H]1CCC[C@@H]1N` [H12 VW], the Kd on CaM (H12 library) is 56 µM; on Gal-1 [1] (H12 library), 346 µM; at S100A4 (H12 library) it was 184 µM; on S100B (H12 library), 31 µM.

Regarding `CC(C)[C@@H](CC(=O)N[C@H]1CCC[C@@H]1C(=O)N[C@H]1CCC[C@@H]1C(=O)N[C@H](CC(=O)N[C@H]1CCC[C@@H]1C(=O)N[C@H]1CCC[C@@H]1C(N)=O)Cc1ccc(O)cc1)NC(=O)[C@H]1CCC[C@@H]1NC(=O)[C@H]1CCC[C@@H]1N` [H12 VY], the Kd on CaM (H12 library) was 247 µM; at Gal-1 [1] (H12 library), 413 µM; on S100A4 (H12 library), 392 µM; on S100B (H12 library), 210 µM.

On to `NC(=O)[C@H]1CCC[C@@H]1NC(=O)[C@H]1CCC[C@@H]1NC(=O)C[C@H](Cc1ccccc1)NC(=O)[C@H]1CCC[C@@H]1NC(=O)[C@H]1CCC[C@@H]1NC(=O)C[C@H](Cc1c[nH]c2ccccc12)NC(=O)[C@H]1CCC[C@@H]1NC(=O)[C@H]1CCC[C@@H]1N` [H12 WF], for which the Kd on CaM (H12 library) amounted to 9 µM; at Gal-1 [1] (H12 library) it was 117 µM; on S100A4 (H12 library), 135 µM; at S100B (H12 library) it was 7 µM.

Turning to `CC[C@H](C)[C@@H](CC(=O)N[C@H]1CCC[C@@H]1C(=O)N[C@H]1CCC[C@@H]1C(N)=O)NC(=O)[C@H]1CCC[C@@H]1NC(=O)[C@H]1CCC[C@@H]1NC(=O)C[C@H](Cc1c[nH]c2ccccc12)NC(=O)[C@H]1CCC[C@@H]1NC(=O)[C@H]1CCC[C@@H]1N` [H12 WI], the Kd on CaM (H12 library) stood at 134 µM; at Gal-1 [1] (H12 library) it was 174 µM; at S100A4 (H12 library) it was 164 µM; on S100B (H12 library) it was 18 µM.

On to `CC(C)C[C@@H](CC(=O)N[C@H]1CCC[C@@H]1C(=O)N[C@H]1CCC[C@@H]1C(N)=O)NC(=O)[C@H]1CCC[C@@H]1NC(=O)[C@H]1CCC[C@@H]1NC(=O)C[C@H](Cc1c[nH]c2ccccc12)NC(=O)[C@H]1CCC[C@@H]1NC(=O)[C@H]1CCC[C@@H]1N` [H12 WL], for which the Kd on CaM (H12 library) is 27 µM; at Gal-1 [1] (H12 library), 200 µM; at S100A4 (H12 library), 105 µM; at S100B (H12 library) it was 21 µM.

Regarding `NC(=O)[C@H]1CCC[C@@H]1NC(=O)[C@H]1CCC[C@@H]1NC(=O)C[C@H](Cc1c[nH]c2ccccc12)NC(=O)[C@H]1CCC[C@@H]1NC(=O)[C@H]1CCC[C@@H]1NC(=O)C[C@H](Cc1c[nH]c2ccccc12)NC(=O)[C@H]1CCC[C@@H]1NC(=O)[C@H]1CCC[C@@H]1N` [H12 WW], the Kd stood at 413 µM on CaM (H12 library), 151 µM on Gal-1 [1] (H12 library), 56 µM on S100A4 (H12 library) and 8 µM at S100B (H12 library).

For the molecule `NC(=O)[C@H]1CCCC[C@@H]1NC(=O)C[C@H](CCC(=O)O)NC(=O)[C@H]1CCCC[C@@H]1NC(=O)[C@H]1CCCC[C@@H]1NC(=O)C[C@H](CC(=O)O)NC(=O)[C@H]1CCCC[C@@H]1N` [H14 DE], at Gal-1 [2], the Kd turned out to be 318 µM.

On to `NC(=O)[C@H]1CCCC[C@@H]1NC(=O)C[C@H](CO)NC(=O)[C@H]1CCCC[C@@H]1NC(=O)[C@H]1CCCC[C@@H]1NC(=O)C[C@H](CC(=O)O)NC(=O)[C@H]1CCCC[C@@H]1N` [H14 DS], for which the Kd on Gal-1 [2] stood at 415 µM.

`C[C@@H](O)[C@@H](CC(=O)N[C@H]1CCCC[C@@H]1C(N)=O)NC(=O)[C@H]1CCCC[C@@H]1NC(=O)[C@H]1CCCC[C@@H]1NC(=O)C[C@H](CC(=O)O)NC(=O)[C@H]1CCCC[C@@H]1N` [H14 DT]: the Kd at Gal-1 [2] was 282 µM.

As to `CC(C)[C@@H](CC(=O)N[C@H]1CCCC[C@@H]1C(N)=O)NC(=O)[C@H]1CCCC[C@@H]1NC(=O)[C@H]1CCCC[C@@H]1NC(=O)C[C@H](CC(=O)O)NC(=O)[C@H]1CCCC[C@@H]1N` [H14 DV], the Kd on Gal-1 [2] was found to be 316 µM.

Turning to `NC(=O)[C@H]1CCCC[C@@H]1NC(=O)C[C@H](CC(=O)O)NC(=O)[C@H]1CCCC[C@@H]1NC(=O)[C@H]1CCCC[C@@H]1NC(=O)C[C@H](CCC(=O)O)NC(=O)[C@H]1CCCC[C@@H]1N` [H14 ED], the Kd at Gal-1 [2] was determined as 318 µM.

In the case of `NC(=O)[C@H]1CCCC[C@@H]1NC(=O)C[C@H](CCC(=O)O)NC(=O)[C@H]1CCCC[C@@H]1NC(=O)[C@H]1CCCC[C@@H]1NC(=O)C[C@H](CCC(=O)O)NC(=O)[C@H]1CCCC[C@@H]1N` [H14 EE], the Kd on Gal-1 [2] is 353 µM.

In the case of `NC(=O)C[C@@H](CC(=O)N[C@H]1CCCC[C@@H]1C(N)=O)NC(=O)[C@H]1CCCC[C@@H]1NC(=O)[C@H]1CCCC[C@@H]1NC(=O)C[C@H](CCC(=O)O)NC(=O)[C@H]1CCCC[C@@H]1N` [H14 EN], at Gal-1 [2], the Kd turned out to be 453 µM.

On to `NC(=O)CC[C@@H](CC(=O)N[C@H]1CCCC[C@@H]1C(N)=O)NC(=O)[C@H]1CCCC[C@@H]1NC(=O)[C@H]1CCCC[C@@H]1NC(=O)C[C@H](CCC(=O)O)NC(=O)[C@H]1CCCC[C@@H]1N` [H14 EQ], for which the Kd on Gal-1 [2] was found to be 443 µM.

Consider `NC(=O)[C@H]1CCCC[C@@H]1NC(=O)C[C@H](CO)NC(=O)[C@H]1CCCC[C@@H]1NC(=O)[C@H]1CCCC[C@@H]1NC(=O)C[C@H](CCC(=O)O)NC(=O)[C@H]1CCCC[C@@H]1N` [H14 ES], for which the Kd at Gal-1 [2] turned out to be 282 µM.

As to `C[C@@H](CC(=O)N[C@H]1CCCC[C@@H]1C(N)=O)NC(=O)[C@H]1CCCC[C@@H]1NC(=O)[C@H]1CCCC[C@@H]1NC(=O)C[C@H](CCCCN)NC(=O)[C@H]1CCCC[C@@H]1N` [H14 KA], the Kd on CaM (H14 library) was 318 µM; at S100B (H14 library), 319 µM; on Gal-1 [2], 465 µM.

As to `CC(C)C[C@@H](CC(=O)N[C@H]1CCCC[C@@H]1C(=O)N[C@H]1CCCC[C@@H]1C(=O)N[C@@H](CCC(N)=O)CC(=O)N[C@H]1CCCC[C@@H]1C(N)=O)NC(=O)[C@H]1CCCC[C@@H]1N` [H14 LQ], the Kd turned out to be 275 µM on CaM (H14 library), 343 µM on Gal-1 [1] (H14 library), 304 µM at S100A4 (H14 library) and 435 µM at S100B (H14 library).

Take `NC(=O)[C@H]1CCCC[C@@H]1NC(=O)C[C@H](CC(=O)O)NC(=O)[C@H]1CCCC[C@@H]1NC(=O)[C@H]1CCCC[C@@H]1NC(=O)C[C@H](Cc1ccc(O)cc1)NC(=O)[C@H]1CCCC[C@@H]1N` [H14 YD]: the results for the Kd at Gal-1 [1] (H14 library) and on Gal-1 [2] were 119 µM and 177 µM, respectively.
